In US5270332A, “Cholesteral lowering agents” (Merck & Co., Inc., priority 1992, dated 1993):

Tests used:
[1] = biological target: T1, squalene synthase (rat liver enzyme) (Rattus norvegicus, UniProt Q02769); assay: Squalene synthase assay using rat liver microsomes; assay type: biochemical; details: [3H]farnesyl-pyrophosphate, 30° C., 20 minutes
T1 construct: from tissue; host or cells: liver microsomes of male Charles River CD rats fed 0.1% lovastatin for 4 days
T1 sequence (Q02769 1-416): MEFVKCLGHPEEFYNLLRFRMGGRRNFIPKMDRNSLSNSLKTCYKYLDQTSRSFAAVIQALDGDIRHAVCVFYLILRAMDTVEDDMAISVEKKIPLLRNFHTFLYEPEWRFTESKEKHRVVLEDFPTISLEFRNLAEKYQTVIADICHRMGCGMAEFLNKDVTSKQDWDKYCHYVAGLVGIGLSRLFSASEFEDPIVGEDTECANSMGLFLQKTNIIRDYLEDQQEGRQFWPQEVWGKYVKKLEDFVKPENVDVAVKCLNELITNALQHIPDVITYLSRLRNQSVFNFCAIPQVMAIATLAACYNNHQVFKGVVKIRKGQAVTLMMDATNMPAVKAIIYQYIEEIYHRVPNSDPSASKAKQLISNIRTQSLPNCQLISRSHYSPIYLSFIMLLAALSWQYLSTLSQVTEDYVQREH
Protocol: The squalene synthase assay using rat liver microsomes is described below:
Preparation of Rat Liver Microsomes
Male, Charles River CD rats (120 to 150 g) were fed a diet containing 0.1% lovastatin for 4 days. The livers from these rats were homogenized in 5 volumes (ml/g) of ice cold 50 mM HEPES (4-(2-hydroxyethyl)-1-piperazine ethanesulfonic acid), 5 mM EDTA (ethylenediaminetetraacetic acid) pH 7.5 with a Potter-Elvehjem type tissue grinder. The homogenate was centrifuged twice at 20,000×g for 15 minutes at 4° C., discarding the pellet each time. The supernatant was then centrifuged at 100,000×g for 1 hour at 4° C. The resulting microsomal pellet was resuspended in a volume of the above homogenizing buffer equal to one fifth the volume of the original homogenate. This microsomal preparation has a protein concentration of about 7 mg/ml. The microsomal suspensions were stored in aliquots at -70° C. […]
If a squalene epoxidase inhibitor (ingredient 7, above) is not used, the assay mix is degassed under a vacuum and flushed with N2. […] Five ml of scintillation fluid was added to the heptane solution and radioactivity was determined by liquid scintillation counting.
Percent inhibition is calculated by the formula: [formula]
IC50 values were determined by plotting the log of the concentration of the test compound versus the percentage inhibition. […]

[2] = biological target: T2, squalene synthase (human HepG2 enzyme) (Homo sapiens, UniProt P37268); assay: Squalene synthase assay, human HepG2 cell enzyme; assay type: biochemical; details: 3 μM 3H-farnesyl pyrophosphate, 30°, 20 minutes
T2 construct: The resulting pellet from the 100,000×g centrifugation, containing the squalene synthase, was resuspended in 5 ml of enzyme suspension buffer; endogenous in cells; host or cells: HepG2 cells (ATCC HB 8065), 100,000×g microsomal pellet
T2 sequence (P37268 1-417): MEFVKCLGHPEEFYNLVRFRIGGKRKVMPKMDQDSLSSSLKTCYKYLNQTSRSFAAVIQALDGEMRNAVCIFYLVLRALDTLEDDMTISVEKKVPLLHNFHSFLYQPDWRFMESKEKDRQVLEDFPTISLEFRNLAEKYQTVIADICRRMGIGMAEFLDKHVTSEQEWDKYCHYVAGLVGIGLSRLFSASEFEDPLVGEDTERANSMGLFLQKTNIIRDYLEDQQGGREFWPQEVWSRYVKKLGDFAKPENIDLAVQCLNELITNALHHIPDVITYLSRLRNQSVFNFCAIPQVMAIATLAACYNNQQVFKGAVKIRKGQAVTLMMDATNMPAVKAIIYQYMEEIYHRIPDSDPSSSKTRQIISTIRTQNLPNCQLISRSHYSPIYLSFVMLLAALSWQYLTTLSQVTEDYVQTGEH
Protocol: The intrinsic squalene synthase inhibitory activity of representative compounds of this invention was also measured by the standard in vitro protocol described below:
PREPARATION OF HUMAN HepG2 cell ENZYME
1. SOURCE: HEPG2 CELL LINE (Liver, hepatoblastoma, Human) ATCC No. HB 8065
2. CELL GROWTH AND MAINTENANCE
Culture Medium: Minimum essential medium (MEM) with non essential amino acids, sodium pyruvate, and 10% fetal bovine serum. The medium was changed twice weekly. […] The growth medium was prepared as listed below:
SUBCULTURE PROCEDURE: The medium was removed and washed with PBS (Phosphate-Buffered Saline 15.6 mM. pH 7.0). Fresh trypsin (0.25%)-EDTA (0.02%) with Hank's Balanced Salt solution was added and the flask was allowed to stand for a minute before the trypsin was removed. The flask was incubated at 37° C. until cells detached. Fresh medium was added and the cells were dispersed and dispensed into new flasks. Subcultivation ration: 1:6. […]
HARVEST: The medium was removed and the cells were washed with PBS. […] Cells 1 were counted (2.5×10^9 yield from 18 flasks (75cm^2)), and resuspended in 10 ml of 50 mM HEPES (N-[2-Hydroxyethyl]piperazine-N'-[2-ethane sulfonic acid]) containing 5 mM MgCl2, 2 mM MnCl2, 10 mM DTT, pH 7.5 (enzyme suspension buffer). […]

[3] = test system: Ras farnesylation; details: literature (Hancock et al.; Casey et al.; Schafer et al.); cited from earlier work

| IC50 [1] [nM] | IC50 [2] [nM] | Compound | Inhibition of Ras farnesylation in vivo [3] |
| --- | --- | --- | --- |
| 5.6 | 31 | CC(O)C(O)CCCCC=CCCCCC(=O)OC1C(O)C2(CCC(C)C(O)C(C)CC=Cc3ccccc3)OC(C(=O)O)C(O)(C(=O)O)C1(C(=O)O)O2 (stereo not shown) [Compound A] | – |
| – | – | CC[C@H](C)C(=O)O[C@H]1CCC=C2C=C[C@H](C)[C@H](CC[C@@H]3C[C@@H](O)CC(=O)O3)[C@H]21 [compactin] | Inhibition of Ras farnesylation in vivo has been demonstrated |
| – | – | CC[C@H](C)C(=O)O[C@H]1C[C@@H](C)C=C2C=C[C@H](C)[C@H](CC[C@@H]3C[C@@H](O)CC(=O)O3)[C@H]21 [lovastatin] | Inhibition of Ras farnesylation in vivo has been demonstrated |
